According to patent US5767124A, “Polymorphic forms of a growth hormone secretagogue” (priority 1996, dated 1998):
Entries after “also recorded” stand apart in the source; their conditions may differ. Read-outs that look alike come from different tables or passages of the source.

Assays:
Type in all cases: physicochemical
[1] = Total volatiles / water content (TGA) and water of hydration; conditions: for moles of water per mole of compound: appears to be a hygroscopic hydrate
Description: (§1) The total volatiles content (as established by TGA analysis) of solid samples of Forms I, II, III and IV upon exposure to various controlled humidities is tabulated below.

[2] = Hygroscopicity: storage of solid forms in constant relative humidity chambers; conditions: for % Gain/Loss / change of sample on storage at high humidity (footnote): room temperature; for change of sample on storage at high humidity (footnote): Form II 48 hrs at 65-100% RH, Form I 96 hrs at 88 and 100% RH
Protocol: as §1
Hygroscopicity was assessed by storing the solid compound in constant relative humidity chambers. […] The results are tabulated below in Tables 1 and 2.

Bulk density = conditions: compared with other forms
[3] = Thermal stability of neat compound (solid state, HPLC); conditions: for thermal stability in words: neat solid; for remaining at 1008 h: 6 Wks; for remaining at 1008 h / remaining at 2856 h: read-out: % Inital; for remaining at 2856 h: 17 Wks; for remaining at 168 h: 1 Wk; for remaining at 336 h: 2 Wks; for remaining at 672 h: 4 Wks; for remaining at 4032 h: 24 Wks; for remaining at 1344 h: 8 Wks
Protocol: The solid state stability of neat compound was assessed by storage of the drug in glass screw-cap vials in the dark. Samples were assayed by HPLC and the parent compound was quantitatively analyzed. The isocratic method that was employed is outlined below:
Column: Beckman Ultrasphere ODS (250×4.6 mm, 5 μ)
Mobile Phase: 0.1% TEA, pH 4.0 with H3 PO4 :Acetonitrile (65:35)
Detection Wavelength: 228 nm
Column Temperature: Ambient
Injection Volume: 20 μL of N-[I(R)-[(1,2-dihydro-1-methanesulfonyl-spiro[3H-indole-3,4'-piperdin]-1'- yl)carbonyl]-2-(phenylmethyl-oxy)ethyl]-2-amino-2-methylpropanamide methanesulfonate (50 μg/mL)
The results shown below for Forms I and II were calculated as weight percent.

[4] = Solubility of Forms I and II in water, buffer, ethanol/water and isopropanol
Protocol: The solubility of Form I in distilled water at room temperature is >100 mg/mL. The aqueous solubility (RT) of Form II in buffered solutions (pH 4-9) is >100 mg/mL. The solubility of Form I in ethanol/water mixtures is shown below: […]

[5] = Solubility of CBZ-sulfonamide 1 in toluene/n-PrOH mixtures by HPLC assay; conditions: 0% toluene in n-PrOH
Protocol: The temperature of both the head and pot rose from 94° C. to 98° C. during the solvent switch. Toluene and n-PrOH form an azeotrope boiling at 97.2° C. composed of 47.5% toluene and 52.5% n-PrOH. The mixture was allowed to cool gradually to 20° C. over 3h and aged for 12 h. […] The solubility of the sulfonamide in various mixtures of toluene and n-PrOH has been determined by HPLC assay: […]

[6] = 76% RH, 48 hrs, footnote a = sample becomes a gummy semisolid
[7] = 100% RH, 48 hrs, footnotes a = gummy semisolid, b = converts to Form IV upon exposure to ambient humidity
[8] = 65% RH, 48 hrs, footnote a = sample becomes a gummy semisolid
[9] = solid state, 40 °C, in the dark
[10] = solid state, 60 °C, in the dark
[11] = solid state, 80 °C, in the dark
[12] = solid state, 40 °C, in the dark, read-out: % Initial
[13] = solid state, 60 °C, in the dark, read-out: % Initial
[14] = solid state, 80 °C, in the dark, read-out: % Initial

Row | SMILES | moles of water per mole of compound [1] | water content (total volatiles by TGA) [1] | % Gain/Loss ([2]; 0% RH, 48 hrs) | % Gain/Loss ([2]; 11% RH, 48 hrs) | % Gain/Loss ([2]; 33% RH, 48 hrs) | % Gain/Loss ([2]; 47% RH, 48 hrs) | % Gain/Loss [2, 6] | % Gain/Loss [2, 7] | % Gain/Loss [2, 8] | thermal stability in words [3] | solubility in isopropanol [4] | hygroscopicity in words [2] | change of sample on storage at high humidity (footnote) [2] | other results
1 | CC(C)(N)C(=O)N[C@H](COCc1ccccc1)C(=O)N1CCC2(CC1)CN(S(C)(=O)=O)c1ccccc12 [Form V, N-[1(R)-[(1,2-dihydro-1-methanesulfonylspiro[3H-indole-3,4'-piperdin]-1'-yl)carbonyl]-2-(phenylmethyloxy)ethyl]-2-amino-2-methylpropanamide methanesulfonate] | 1 moles of water per mole |  |  |  |  |  |  |  |  |  |  | hygroscopic |  | 
2 | CC(C)(N)C(=O)N[C@H](COCc1ccccc1)C(=O)N1CCC2(CC1)CN(S(C)(=O)=O)c1ccccc12 [Form IV, N-[1(R)-[(1,2-dihydro-1-methanesulfonylspiro[3H-indole-3,4'-piperdin]-1'-yl)carbonyl]-2-(phenylmethyloxy)ethyl]-2-amino-2-methylpropanamide methanesulfonate] | 3.5 moles of water per mole | 9.5-10.0 wt % | -7.8% | -4.9% | +0.3% | +0.7% | +1.5% | +5.3% |  |  |  |  |  | % Gain/Loss ([2]; 66% RH, 48 hrs): +1.4%; bulk density (Bulk density): higher bulk density than other forms
3 | CS(=O)(=O)N1CC2(CCN(C(=O)OCc3ccccc3)CC2)c2ccccc21 [Form 1, CBZ-Spiroindoline-methanesulfonamide] |  |  |  |  |  |  |  |  |  |  |  |  |  | solubility of 1 [5]: 2.36 mg/mL

Now from value to compound, other results behind:

Row | moles of water per mole of compound [1] | water content (total volatiles by TGA) [1] | % Gain/Loss ([2]; 0% RH, 48 hrs) | % Gain/Loss ([2]; 11% RH, 48 hrs) | % Gain/Loss ([2]; 33% RH, 48 hrs) | % Gain/Loss ([2]; 47% RH, 48 hrs) | % Gain/Loss [2, 6] | % Gain/Loss [2, 7] | % Gain/Loss [2, 8] | thermal stability in words [3] | solubility in isopropanol [4] | SMILES | hygroscopicity in words [2] | change of sample on storage at high humidity (footnote) [2] | other results
4 |  | 0.79 wt % | -0.02% | -0.05% |  | +0.21% | +0.12% | > 12.0% | +0.37% | good thermal stability | 4.6 mg/niL | CC(C)(N)C(=O)N[C@H](COCc1ccccc1)C(=O)N1CCC2(CC1)CN(S(C)(=O)=O)c1ccccc12 [Form I, N-[1(R)-[(1,2-dihydro-1-methanesulfonylspiro[3H-indole-3,4'-piperdin]-1'-yl)carbonyl]-2-(phenylmethyloxy)ethyl]-2-amino-2-methylpropanamide methanesulfonate] | non-hygroscopic; also recorded: the wet crystals are very hygroscopic; also recorded: No substantial moisture increase is exhibited by Form I except when stored above 76% RH | deliquescent material | water content in words [1]: relatively anhydrous; % Gain/Loss ([2]; 7% RH, 96 hrs): +0.4%; % Gain/Loss ([2]; 22% RH, 96 hrs): +0.3%; % Gain/Loss ([2]; 47% RH, 96 hrs): +0.5%; % Gain/Loss ([2]; 68% RH, 96 hrs): +0.6%; % Gain/Loss ([2]; 88% RH, 96 hrs, * = deliquescent material): +12.9%; % Gain/Loss ([2]; 100% RH, 96 hrs, * = deliquescent material): +23.9%; remaining at 1008 h [3, 9]: 100%; remaining at 2856 h [3, 9]: 98.7%; remaining at 1008 h [3, 10]: 101%; remaining at 2856 h [3, 10]: 101%; remaining at 1008 h [3, 11]: 101%; remaining at 2856 h [3, 11]: 99.4%; solubility ([4]; distilled water, water, room temperature, read-out: solubility in distilled water): > 100 mg/mL; solubility ([4]; ethanol/water 25/75, organic solvent or mixture, % Ethanol/H2O 25/75, read-out: Solubility in ethanol/water): > 100 mg/mL; solubility ([4]; ethanol/water 50/50, organic solvent or mixture, % Ethanol/H2O 50/50, read-out: Solubility in ethanol/water): > 100 mg/mL; solubility ([4]; ethanol/water 75/25, organic solvent or mixture, % Ethanol/H2O 75/25, read-out: Solubility in ethanol/water): > 90 mg/mL; solubility ([4]; organic solvent or mixture, 100% ethanol, read-out: Solubility in ethanol): > 90 mg/mL
5 |  | 0.56 wt % | +0.08% | +0.02% | +0.33% | +0.39% | > 10.0% | > 10.0% | > 10.0% | good thermal stability | 12.3 mg/mL | CC(C)(N)C(=O)N[C@H](COCc1ccccc1)C(=O)N1CCC2(CC1)CN(S(C)(=O)=O)c1ccccc12 [Form II, N-[1(R)-[(1,2-dihydro-1-methanesulfonylspiro[3H-indole-3,4'-piperdin]-1'-yl)carbonyl]-2-(phenylmethyloxy)ethyl]-2-amino-2-methylpropanamide methanesulfonate] | hygroscopic and exhibits a large increase in moisture starting at 65% RH | Sample becomes a gummy semisolid; also recorded: Converts to Form IV upon exposure to ambient humidity | % Initial ([3]; 80 °C, 12 Wks, in the dark, 120960 min): 100.4%; remaining at 168 h [3, 12]: 99.7%; remaining at 336 h [3, 12]: 101%; remaining at 672 h [3, 12]: 99.5%; remaining at 4032 h [3, 12]: 100%; remaining at 168 h [3, 13]: 99.4%; remaining at 336 h [3, 13]: 99.6%; remaining at 672 h [3, 13]: 100%; remaining at 1344 h [3, 13]: 100%; remaining at 2016 h ([3]; solid state, 60 °C, 12 Wks, in the dark, read-out: % Initial): 101%; remaining at 4032 h [3, 13]: 101%; remaining at 168 h [3, 14]: 99.2%; remaining at 336 h [3, 14]: 100%; remaining at 672 h [3, 14]: 99.2%; remaining at 1344 h [3, 14]: 99.8%; solubility ([4]; buffer ph 4-9, RT, pH 4-9, read-out: aqueous solubility in buffered solutions): > 100 mg/mL; solubility in IPA ([4]; crystalline material from EtOAc-EtOH): 12 mg/mL
6 |  | 4.5-5.0 wt % |  | -0.15% | +2.23% | +3.99% | +3.76% |  |  |  |  | CC(C)(N)C(=O)N[C@H](COCc1ccccc1)C(=O)N1CCC2(CC1)CN(S(C)(=O)=O)c1ccccc12 [Form III, N-[1(R)-[(1,2-dihydro-1-methanesulfonylspiro[3H-indole-3,4'-piperdin]-1'-yl)carbonyl]-2-(phenylmethyloxy)ethyl]-2-amino-2-methylpropanamide methanesulfonate] | shows an increase in moisture after 48-hr storage at 33% RH |  | 
